The record followed here is ChEMBL document CHEMBL5046308, “Heterobifunctional Compounds as BRAF Degraders for Treating Cancer” (ACS Med Chem Lett, 2022).

Chain of Protein cereblon/Serine/threonine-protein kinase B-raf (P15056 2-766 V600E limits assumed, stated change not applied): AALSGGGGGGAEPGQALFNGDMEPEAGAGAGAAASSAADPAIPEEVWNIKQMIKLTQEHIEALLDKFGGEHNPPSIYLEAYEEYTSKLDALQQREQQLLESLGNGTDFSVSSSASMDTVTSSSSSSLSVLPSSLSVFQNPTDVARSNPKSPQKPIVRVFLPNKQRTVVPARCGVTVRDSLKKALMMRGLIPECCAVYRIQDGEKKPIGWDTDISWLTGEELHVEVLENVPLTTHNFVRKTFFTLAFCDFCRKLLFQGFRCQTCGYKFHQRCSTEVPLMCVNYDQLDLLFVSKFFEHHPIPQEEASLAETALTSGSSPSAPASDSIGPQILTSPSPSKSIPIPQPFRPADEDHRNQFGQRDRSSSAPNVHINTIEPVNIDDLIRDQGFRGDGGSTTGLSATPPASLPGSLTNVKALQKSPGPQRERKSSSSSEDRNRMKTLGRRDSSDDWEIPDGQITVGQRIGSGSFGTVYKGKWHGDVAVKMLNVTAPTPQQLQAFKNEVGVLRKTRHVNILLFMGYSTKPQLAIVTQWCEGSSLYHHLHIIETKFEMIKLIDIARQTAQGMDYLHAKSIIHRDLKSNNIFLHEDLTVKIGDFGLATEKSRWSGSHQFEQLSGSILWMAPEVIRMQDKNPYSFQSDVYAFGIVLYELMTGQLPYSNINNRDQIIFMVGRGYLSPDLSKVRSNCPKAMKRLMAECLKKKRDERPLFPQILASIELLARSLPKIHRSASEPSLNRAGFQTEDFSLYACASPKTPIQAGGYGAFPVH
Chain of Protein cereblon/Serine/threonine-protein kinase B-raf (Q96SW2 whole entry, stated change not applied): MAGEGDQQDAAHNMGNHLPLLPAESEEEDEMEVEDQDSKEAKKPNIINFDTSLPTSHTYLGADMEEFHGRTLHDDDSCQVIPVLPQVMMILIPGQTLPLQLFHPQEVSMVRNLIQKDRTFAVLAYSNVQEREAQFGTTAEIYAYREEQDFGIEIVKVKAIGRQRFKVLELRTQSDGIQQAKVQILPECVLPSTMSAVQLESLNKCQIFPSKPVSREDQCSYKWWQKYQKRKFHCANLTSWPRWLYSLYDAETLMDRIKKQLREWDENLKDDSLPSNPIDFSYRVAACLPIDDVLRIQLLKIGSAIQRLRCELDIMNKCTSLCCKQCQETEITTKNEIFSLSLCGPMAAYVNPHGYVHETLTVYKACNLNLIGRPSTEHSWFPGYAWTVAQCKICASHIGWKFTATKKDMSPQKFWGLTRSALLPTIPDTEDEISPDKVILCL

The experiment has as its target Protein cereblon/Serine/threonine-protein kinase B-raf (Homo sapiens, UniProt P15056+Q96SW2, V600E). The experiment is described as follows: Protac activity at CRBN/BRAF V600E mutant (unknown origin) assessed as BRAF V600E degradation by HiBit cellular BRAF V600E degradation assay. For orientation: The HiBiT peptide binds its large partner to form an active luciferase.
With `CCN(C)S(=O)(=O)Nc1ccc(F)c(C(=O)c2c[nH]c3ncc(-c4ccc(N5CCN(C(=O)[C@H]6C[C@H](Nc7cccc8c7C(=O)N(C7CCC(=O)NC7=O)C8=O)C6)CC5)cc4)cc23)c1F` (stereo partly specified), the DC50 was found to be 23 nM.
For `CCN(C)S(=O)(=O)Nc1ccc(F)c(C(=O)c2c[nH]c3ncc(-c4ccc(N5CCN(C(=O)CCCOc6cccc7c6C(=O)N(C6CCC(=O)NC6=O)C7=O)CC5)nc4)cc23)c1F` (stereo unspecified), the DC50 is 10 nM.
With `CCN(C)S(=O)(=O)Nc1ccc(F)c(C(=O)c2c[nH]c3ncc(-c4ccc(N5CCN(C(=O)CCCNc6cccc7c6C(=O)N(C6CCC(=O)NC6=O)C7=O)CC5)nc4)cc23)c1F` (stereo unspecified), the DC50 worked out at 26 nM.
With `CCN(C)S(=O)(=O)Nc1ccc(F)c(C(=O)c2c[nH]c3ncc(-c4ccc(N5CCN(C(=O)[C@H]6C[C@H](Nc7cccc8c7C(=O)N(C7CCC(=O)NC7=O)C8=O)C6)CC5)nc4)cc23)c1F` (stereo partly specified) the figure was 10 nM; with `CCN(C)S(=O)(=O)Nc1ccc(F)c(C(=O)c2c[nH]c3ncc(-c4ccc(N5CCN(C(=O)CCCOc6cccc7c6C(=O)N(C6CCC(=O)NC6=O)C7=O)CC5)cc4)cc23)c1F` (stereo unspecified), 16 nM.
The value for `CCN(C)S(=O)(=O)Nc1ccc(F)c(C(=O)c2c[nH]c3ncc(-c4cnc(N5CCN(C(=O)CCCOc6cccc7c6C(=O)N(C6CCC(=O)NC6=O)C7=O)CC5)nc4)cc23)c1F` (stereo unspecified) was 20 nM.

Usually DC50 stands for the concentration at which degradation of the target reaches its halfway point.
